In patent US12410179B2, “Modulators of TNF alpha activity and uses thereof” (RayThera, Inc., priority 2023, dated 2025):

The compounds below were run against TNFα (Homo sapiens, UniProt P01375) (assay: HEK-Blue hTNFα reporter assay). Conditions: HEK-Blue hTNFα reporter cells, SEAP readout; read-out: IC50 Range.
Assay type: cell-based
Set-up: purchased R&D biosystem (R&D Systems) 210-TA-020/CF
Procedure, shortened: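 IC50 from 4-parameter regression of % inhibition, with OD620 of secreted SEAP (QUANTI-Blue, 1 h) referenced to cells with and without hTNFα. HEK-Blue TNFα reporter cells were exposed 24 h to compound premixed 1 h with hTNFα ([…]).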

Sequence of TNFα (P01375 77-233 limits assumed): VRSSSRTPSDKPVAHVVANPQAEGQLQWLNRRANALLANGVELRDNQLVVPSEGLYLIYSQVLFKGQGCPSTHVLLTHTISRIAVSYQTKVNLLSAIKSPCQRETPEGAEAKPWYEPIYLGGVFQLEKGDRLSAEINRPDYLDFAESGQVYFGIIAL

Row | SMILES | IC50 [nM]
1 | [2H]C([2H])([2H])N1C(=O)c2cccc(OC(F)F)c2[C@H]2C[C@@H]1c1nn3ccc(-c4cnc([C@H](N)C5CC5)nc4)cc3c12 [Example 257] | < 25
2 | CN1C(=O)c2cccc(OC(F)F)c2[C@H]2C[C@@H]1c1nn3ccc(-c4cnc([C@H](O)C(F)F)nc4)cc3c12 [Example 105] | < 25
3 | [2H]C([2H])([2H])N1C(=O)c2cccc(OC(F)F)c2[C@H]2C[C@@H]1c1nn3cc(F)c(-c4cnc([C@]5(N)C[C@@](C)(O)C5)nc4)cc3c12 [Example 267] | < 25
4 | CN1C(=O)c2cccc(OC(F)F)c2[C@H]2C[C@@H]1c1nn3ccc(-c4cnc([C@]5(O)C[C@@H](O)C5)nc4)cc3c12 [Example 82] | < 25
5 | [2H]C([2H])([2H])N1C(=O)c2cccc(OC(F)F)c2[C@H]2C[C@@H]1c1nn3cc(C)c(-c4cnc(C5(N)CCC5)nc4)nc3c12 [Example 216] | < 25
6 | [2H]C([2H])([2H])N1C(=O)c2cccc(OC(F)F)c2[C@H]2C[C@@H]1c1nn3ccc(-c4cnc([C@]5(C#N)C[C@](C)(N)C5)nc4)nc3c12 [Example 236] | 100 to 1000
7 | CN1C(=O)c2cccc(OC(F)F)c2[C@H]2C[C@@H]1c1nn3ccc(-c4cnc([C@](C)(O)CO)nc4)cc3c12 [Example 83] | < 25
8 | CN1C(=O)c2cccc(OC(F)F)c2[C@H]2C[C@@H]1c1nn3ccc(-c4cnc(N5CCNCC5)nc4)cc3c12 [Example 143] | < 25
9 | CN1C(=O)c2cccc(OC(F)F)c2[C@H]2C[C@@H]1c1nn3ccc(-c4cnc([C@]5(O)CC[C@H](O)C5)nc4)cc3c12 [Example 111] | < 25
10 | CN1C(=O)c2cccc(OC(F)F)c2[C@H]2C[C@@H]1c1nn3ccc(-c4ccc([C@]5(N)C[C@@](C)(C(=O)O)C5)nc4)cc3c12 [Example 165] | < 25
11 | [2H]C([2H])([2H])N1C(=O)c2cccc(OC(F)F)c2[C@H]2C[C@@H]1c1nn3cc(F)c(-c4cnc([C@]5(N)C[C@@](C)(O)C5)nc4)nc3c12 [Example 57] | < 25
12 | CN1C(=O)c2cccc(OC(F)F)c2[C@H]2C[C@@H]1c1nn3ccc([C@H]4CC[C@@H](OC[C@@H](O)CO)CC4)cc3c12 [Example 316, (7R,14S)-1-(difluoromethoxy)-12-((1R,4R)-4-((S)-2,3-dihydroxypropoxy)cyclohexyl)-6-methyl-6,7-dihydro-7,14-methanobenzo[c]pyrido[1′,2′:1,5]pyrazolo[4,3-f]azocin-5 (14H)-one] | < 25
13 | CN1C(=O)c2cccc(OC(F)F)c2[C@H]2C[C@@H]1c1nn3ccc(-c4cnc([C@@H](N)C5CC5)nc4)cc3c12 [Example 104] | < 25
14 | [2H]C([2H])([2H])N1C(=O)c2cccc(OC(F)F)c2[C@H]2C[C@@H]1c1nn3ccc(-c4ccc(S(=N)(=O)CC)nc4)cc3c12 (stereo partly shown) [Example 124] | < 25
15 | [2H]C([2H])([2H])N1C(=O)c2cccc(OC(F)F)c2[C@H]2C[C@@H]1c1nn3cc(C)c(-c4cnc([C@]5(N)C[C@@](C)(O)C5)nc4)cc3c12 [Example 201] | < 25
16 | [2H]C([2H])([2H])N1C(=O)c2cccc(OC(F)F)c2[C@H]2C[C@@H]1c1nn3cc(F)c(-c4cnc(C(C)(C)N)nc4)cc3c12 [Example 294] | < 25
17 | [2H]C([2H])([2H])N1C(=O)c2cccc(OC(F)F)c2[C@H]2C[C@@H]1c1nn3cc(C)c(-c4cnc([C@]5(N)C[C@@](C)(C#N)C5)nc4)nc3c12 [Example 237] | < 25
18 | CN1C(=O)c2cccc(OC(F)F)c2[C@H]2C[C@@H]1c1nn3ccc(-c4cnc([C@@]5(O)CC[C@@H](O)C5)nc4)cc3c12 [Example 112] | < 25
19 | CN1C(=O)c2cccc(OC(F)F)c2[C@H]2C[C@@H]1c1nn3ccc(-c4cnc(N5CCN(CCO)CC5)nc4)cc3c12 [Example 145] | < 25
20 | CN1C(=O)c2cccc(OC(F)F)c2[C@H]2C[C@@H]1c1nn3ccc(-c4cnc([C@H](O)C(C)(C)O)nc4)cc3c12 [Example 133] | < 25
21 | C[C@@](O)(c1ncc(-c2ccn3nc4c(c3c2)[C@@H]2C[C@H]4NC(=O)c3cccc(OC(F)F)c32)cn1)C(F)F [Example 151] | < 25
22 | [2H]C([2H])([2H])N1C(=O)c2cccc(OC(F)F)c2[C@H]2C[C@@H]1c1nn3ccc(-c4cnc([C@]5(N)C[C@@H](C#N)C5)nc4)nc3c12 [Example 176] | < 25
23 | [2H]C([2H])([2H])N1C(=O)c2cccc(OC(F)F)c2[C@H]2C[C@@H]1c1nn3ccc(-c4cnc5c(c4)CC[C@@]5(C)N)cc3c12 [Example 328] | < 25
24 | [2H]C([2H])([2H])N1C(=O)c2cccc(OC(F)F)c2[C@H]2C[C@@H]1c1nn3cc(F)c(-c4cnc([C@]5(N)C[C@@](C)(C#N)C5)nc4)cc3c12 [Example 240] | < 25
25 | C[C@@H](O)c1ncc(-c2ccn3nc4c(c3c2)[C@@H]2C[C@H]4N(C)C(=O)c3cccc(OC(F)F)c32)cn1 [Example 94] | < 25

Second part, the compound after the results:

Row | IC50 [nM] | SMILES
26 | < 25 | [2H]C([2H])([2H])N1C(=O)c2cccc(OC(F)F)c2[C@H]2C[C@@H]1c1nn3ccc(-c4cnc(C5(N)CC5)nc4)cc3c12 [Example 255]
27 | < 25 | [2H]C([2H])([2H])N1C(=O)c2cccc(OC(F)F)c2[C@H]2C[C@@H]1c1nn3ccc(-c4cnc(C(C)(C)N)c(F)c4)nc3c12 [Example 326]
28 | < 25 | CN1C(=O)c2cccc(OC(F)F)c2[C@H]2C[C@@H]1c1nn3ccc(-c4cnc(P(C)(C)=O)c(F)c4)cc3c12 [Example 21]
29 | < 25 | CN1C(=O)c2cccc(OC(F)F)c2[C@H]2C[C@@H]1c1nn3ccc(-c4cnc(C(C)(C)N)nc4)nc3c12 [Example 295]
30 | < 25 | CN1C(=O)c2cccc(OC(F)F)c2[C@H]2C[C@@H]1c1nn3cnc(-c4cnc([C@]5(O)C[C@@](C)(O)C5)nc4)cc3c12 [Example 32]
31 | < 25 | CN1C(=O)c2cccc(OC(F)F)c2[C@H]2C[C@@H]1c1nn3cc(F)c(-c4ccc([S@@](=N)(=O)C5CC5)nc4)cc3c12 [Example 120]
32 | < 25 | CN1C(=O)c2cccc(OC(F)F)c2[C@H]2C[C@@H]1c1nn3ccc(-c4ccnc(OCP(C)(C)=O)c4)cc3c12 [Example 70]
33 | 25 to 100 | [2H]C([2H])([2H])N1C(=O)c2cccc(C)c2[C@H]2C[C@@H]1c1nn3ccc(-c4cnc(C5(N)CCC5)nc4)cc3c12 [Example 302, (7R,14R)-12-(2-(1-aminocyclobutyl)pyrimidin-5-yl)-1-methyl-6-(methyl-d3)-6,7-dihydro-7,14-methanobenzo[c]pyrido[1′,2′:1,5]pyrazolo[4,3-f]azocin-5 (14H)-one]
34 | < 25 | CN1C(=O)c2cccc(OC(F)F)c2[C@H]2C[C@@H]1c1nn3ccc(-c4cnc([C@H](O)C5COC5)nc4)cc3c12 [Example 137]
35 | < 25 | [2H]C([2H])([2H])N1C(=O)c2cccc(OC(F)F)c2[C@H]2C[C@@H]1c1nn3ccc(-c4cnc([C@@H](N)C5CC5)nc4)cc3c12 [Example 258]
36 | < 25 | C[C@](O)(CC#N)c1ncc(-c2cc3c4c(nn3cc2F)[C@H]2C[C@@H]4c3c(OC(F)F)cccc3C(=O)N2)cn1 [Example 192]
37 | < 25 | [2H]C([2H])([2H])N1C(=O)c2cccc(OC(F)F)c2[C@H]2C[C@@H]1c1nn3cc(F)c(-c4cnc([C@]5(N)C[C@@](C)(CO)C5)nc4)nc3c12 [Example 274]
38 | < 25 | CN1C(=O)c2cccc(OC(F)F)c2[C@H]2C[C@@H]1c1nn3ccc(-c4cnc([C@]5(O)C[C@](O)(C(F)F)C5)nc4)cc3c12 [Example 91]
39 | < 25 | [2H]C([2H])([2H])N1C(=O)c2ccc(F)c(OC(F)F)c2[C@H]2C[C@@H]1c1nn3ccc(-c4cnc([C@]5(N)C[C@@](C)(O)C5)nc4)nc3c12 [Example 288]
40 | < 25 | [2H]C([2H])([2H])N1C(=O)c2cccc(OC(F)F)c2[C@H]2C[C@@H]1c1nn3ccc(-c4cnc([C@]5(C#N)C[C@@](C)(N)C5)nc4)cc3c12 [Example 279]
41 | < 25 | C#Cc1cccc2c1[C@H]1C[C@H](c3nn4ccc(-c5cnc([C@]6(O)C[C@@](C)(O)C6)nc5)cc4c31)N(C)C2=O [Example 305]
42 | < 25 | CN1C(=O)c2cccc(OC(F)F)c2[C@H]2C[C@@H]1c1nn3ccc(-c4ccc(P(C)(C)=O)cn4)cc3c12 [Example 122]
43 | < 25 | CN1C(=O)c2cccc(OC(F)F)c2[C@H]2C[C@@H]1c1nn3cc(F)c(-c4cnc([C@]5(O)C[C@@](C)(O)C5)nc4)cc3c12 [Example 109]
44 | < 25 | CN1C(=O)c2cccc(OC(F)F)c2[C@H]2C[C@@H]1c1nn3ccc(-c4cnc(C5(N)CC(F)(F)C5)nc4)cc3c12 [Example 99]
45 | < 25 | C[C@H](O)c1ncc(-c2ccn3nc4c(c3c2)[C@@H]2C[C@H]4N(C)C(=O)c3cccc(OC(F)F)c32)cn1 [Example 93]
46 | < 25 | [2H]C([2H])([2H])N1C(=O)c2cccc(OC(F)F)c2[C@H]2C[C@@H]1c1nn3cc(F)c(-c4cnc([C@]5(N)C[C@](O)(C(F)(F)F)C5)nc4)nc3c12 [Example 183]
47 | < 25 | CN1C(=O)c2cccc(OC(F)F)c2[C@H]2C[C@@H]1c1nn3cc(F)c(-c4cnc(C5(O)COC5)nc4)cc3c12 [Example 98]
48 | < 25 | [2H]C([2H])([2H])N1C(=O)c2ccc(F)c(OC(F)F)c2[C@H]2C[C@@H]1c1nn3ccc(-c4cnc([C@]5(N)C[C@@](C)(O)C5)c(F)c4)nc3c12 [Example 289]
49 | < 25 | [2H]C([2H])([2H])N1C(=O)c2cccc(OC(F)F)c2[C@H]2C[C@@H]1c1nn3ccc(-c4cnc(C5(N)CCC5)cn4)cc3c12 [Example 207]
50 | < 25 | [2H]C([2H])([2H])N1C(=O)c2cccc(OC(F)F)c2[C@H]2C[C@@H]1c1nn3ccc(-c4cnc([C@]5(N)C[C@@](C)(C#N)C5)cn4)cc3c12 [Example 210]
51 | < 25 | CN1C(=O)c2cccc(OC(F)F)c2[C@H]2C[C@@H]1c1nn3cc(F)c(-c4cnc([C@]5(N)C[C@@](C)(O)C5)nc4)nc3c12 [Example 27]
52 | < 25 | [2H]C([2H])([2H])N1C(=O)c2cccc(OC(F)F)c2[C@H]2C[C@@H]1c1nn3cc(F)c(-c4cnc(C5(N)COC5)nc4)cc3c12 [Example 206]
